Source: PubChem BioAssay AID2060509 (Molecular Pharmacology Branch, DTP, NCI, 2025)
“And” between values parts separate entries of the source, which are not always exact repeats. Equal entries are not always repeated.

Test system: 485176-168-R4-J1-PDC spheroids with HUVEC/MSC, viability
Test: Anticancer human tumor 485176-168-R4-J1-PDC patient-derived pancreatic adenocarcinoma cell line growth inhibition [GQUAD]
Settings: for viability, T/C: stronger effect = lower value
Source text: DNA G-quadruplex Stabilizer Agents in Combinations in Complex Spheroids
A high-throughput screen of multi-cell type tumor spheroids was designed to identify active combinations of DNA G-quadruplex stabilizer agents and targeted small molecules. Complex spheroids include a stromal component modeled by human endothelial cells (HUVEC) and fibroblasts modeled by human mesenchymal stem cells (MSCs). The concentration ranges selected for each drug and investigational agent were based upon clinically achievable concentrations if the clinical Cmax of the agent was known.
Compounds. The drugs and investigational agents: pidnarulex (CX-5461; NSC782164), APTO-253 (NSC789042), BRACO-19 (NSC847499), peposertib (NSC802822), ceralasertib (NSC780249), elimusertib (NSC800525), camonsertib (NSC841442), AZD-1390 (NSC803789), olaparib (NSC753686), talazoparib (NSC767125), ART-558 (NSC835418), sotorasib (NSC818433), MRTX-1133 (NSC836407), SN-38 (NSC673596), topotecan (NSC609699), etoposide (NSC141540), doxorubicin (NSC123127), gemcitabine (NSC613327), 5-fluorouracil (NSC19893), paclitaxel (NSC125973), vemurafenib (NSC761431), panobinostat (NSC761190), R-306465 (JNJ-16241199; NSC773264), adavosertib (NSC754352), TP-3654 (NSC805149), carboplatin (NSC241240), KSQ-4279 (NSC840948), and staurosporine (NSC755774) were obtained from the National Cancer Institute (NCI) Developmental Therapeutics Program Chemical Repository (34). The FDA-approved anticancer drug set is available from the NCI Developmental Therapeutics Program. […] The stock solutions were prepared in dimethyl sulfoxide (DMSO, Sigma-Aldrich, St. Louis, MO, cat. D2650) at 800-fold the tested concentration and stored at -70 degrees C prior to their use. All drugs and investigational agents were tested over a range starting from a high concentration at or near the clinical Cmax and decreasing in half-log increments. If the clinical Cmax for an agent had not been determined, the highest concentration tested was 10 microM.
2.3 Cell Culture. All cells were maintained in an incubator at 37 degrees C and 5% CO2 with 95% humidity. The PDC lines were cultured according to standard operating procedures established by the NCI PDMR. All PDCs were thawed and cultured in Matrigel-coated flasks prepared with a working solution of 1X Ham's F-12 nutrient mix, without supplementation (Invitrogen, cat. 11765054), 100 U/mL penicillin-streptomycin (Invitrogen, cat. 15140122), and 2.5% Matrigel (Corning Inc., cat. 354248) for the first three passages. The 857933-349-R-J2-PDC line was cultured in 6C/Colon 1B media, which includes advanced DMEM/F-12 (Thermo Fisher Scientific, cat. 12634028), 10 mM HEPES (Thermo Fisher Scientific, cat. 15630080), 1X GlutaMAX supplement (Thermo Fisher Scientific, cat. 35050061), 0.1 mg/mL primocin (InvivoGen, cat. ant-pm-2), 10% defined fetal bovine serum, heat inactivated (HyClone Laboratories Inc., cat. SH30070.03HI), 50% L-WRN conditioned media (ATCC, cat. CRL-3276), 1.25 mM N-Acetyl-L-cysteine (Sigma-Aldrich, cat. A9165), 10 mM nicotinamide (Sigma-Aldrich, cat. N0636), 1X B-27 supplement (Thermo Fisher Scientific, cat. 17504044), 1X N-2 supplement (Thermo Fisher Scientific, cat. 17502048), 10 microM Y-27632 dihydrochloride (Tocris Bioscience, cat. 1254), and 50 ng/mL human EGF recombinant protein (Thermo Fisher Scientific, cat. PHG0311). The 485176-168-R4-J1-PDC line was cultured in Panc media, which includes all 6C/Colon 1B media components plus 100 ng/mL human FGF-10 (Thermo Fisher Scientific, cat. 100-26), 500 nM SB-431542 (Selleckchem, cat. S1067), and gastrin (Tocris, cat. 3006).
[…]
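Note: spheroids exposed to compounds for seven days before readout.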
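Throughout, for viability, T/C: percent viability relative to DMSO vehicle control wells as 100%.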

C=CC(=O)N1CCN(c2nc(=O)n(-c3c(C)ccnc3C(C)C)c3nc(-c4c(O)cccc4F)c(F)cc23)C(C)C1 (centres undefined) + Cc1cnc(CNC(=O)c2c(=O)c3ccc(N4CCCN(C)CC4)nc3n3c2sc2ccccc23)cn1
IC50 (curve of first compound, second compound 0.0316 µM): > 10 µM | IC50 (curve of first compound, second compound 0.1 µM): > 10 µM | IC50 (curve of first compound, second compound 0.316 µM): > 10 µM | IC50 (curve of first compound, second compound 1 µM): > 10 µM | IC50 (curve of first compound, second compound 3.16 µM): < 0.0316 µM | IC50 (curve of first compound, second compound 10 µM): < 0.0316 µM | viability, T/C (second compound 0.0316 µM, first compound 0.0316 µM): 108% | viability, T/C (second compound 0.0316 µM, first compound 0.1 µM): 97.2% | viability, T/C (second compound 0.0316 µM, first compound 0.316 µM): 111% | viability, T/C (second compound 0.0316 µM, first compound 1 µM): 97.7% | viability, T/C (second compound 0.0316 µM, first compound 3.16 µM): 114% | viability, T/C (second compound 0.0316 µM, first compound 10 µM): 110% | viability, T/C (second compound 0.1 µM, first compound 0.0316 µM): 67.5% | viability, T/C (second compound 0.1 µM, first compound 0.1 µM): 81.6% | viability, T/C (second compound 0.1 µM, first compound 0.316 µM): 86.7% | viability, T/C (second compound 0.1 µM, first compound 1 µM): 92.4% | viability, T/C (second compound 0.1 µM, first compound 3.16 µM): 96.4% | viability, T/C (second compound 0.1 µM, first compound 10 µM): 92.5% | viability, T/C (second compound 0.316 µM, first compound 0.0316 µM): 63.8% | viability, T/C (second compound 0.316 µM, first compound 0.1 µM): 62.5% | viability, T/C (second compound 0.316 µM, first compound 0.316 µM): 83.7% | viability, T/C (second compound 0.316 µM, first compound 1 µM): 72.1% | viability, T/C (second compound 0.316 µM, first compound 3.16 µM): 81.6% | viability, T/C (second compound 0.316 µM, first compound 10 µM): 79.3% | viability, T/C (second compound 1 µM, first compound 0.0316 µM): 58% | viability, T/C (second compound 1 µM, first compound 0.1 µM): 62.1% | viability, T/C (second compound 1 µM, first compound 0.316 µM): 80.1% | viability, T/C (second compound 1 µM, first compound 1 µM): 52.2% | viability, T/C (second compound 1 µM, first compound 3.16 µM): 61.1% | viability, T/C (second compound 1 µM, first compound 10 µM): 60.7% | viability, T/C (second compound 3.16 µM, first compound 0.0316 µM): 49% | viability, T/C (second compound 3.16 µM, first compound 0.1 µM): 45.7% | viability, T/C (second compound 3.16 µM, first compound 0.316 µM): 46.9% | viability, T/C (second compound 3.16 µM, first compound 1 µM): 50.1% | viability, T/C (second compound 3.16 µM, first compound 3.16 µM): 54.6% | viability, T/C (second compound 3.16 µM, first compound 10 µM): 49.5% | viability, T/C (second compound 10 µM, first compound 0.0316 µM): 43.6% | viability, T/C (second compound 10 µM, first compound 0.1 µM): 47.7% | viability, T/C (second compound 10 µM, first compound 0.316 µM): 51% | viability, T/C (second compound 10 µM, first compound 1 µM): 43.7% | viability, T/C (second compound 10 µM, first compound 3.16 µM): 49% | viability, T/C (second compound 10 µM, first compound 10 µM): 50.3%

COc1ncnc(C2CC2)c1-c1ncc2cnn(Cc3ccc(-c4nc(C(F)(F)F)cn4C(C)C)cc3)c2n1
viability, T/C (compound 0.0316 µM): 95.3% and 93.3% and 91.2% | viability, T/C (compound 0.1 µM): 96.5% and 107% and 90.4% | viability, T/C (compound 0.316 µM): 104% and 96.2% and 105% | viability, T/C (compound 1 µM): 84.1% and 92.2% and 106% | viability, T/C (compound 3.16 µM): 102% and 107% and 93.4% | viability, T/C (compound 10 µM): 103% and 106% and 98.5% | IC50 (curve of compound): > 10 µM
